Measurements reported in patent US9586936B2, “Heteroarylamine derivatives as protein kinase inhibitors” (KOREA INSTITUTE OF SCIENCE AND TECHNOLOGY, priority 2014, dated 2017).

Assays:
[1] = in-vivo PK profile, rat PK; details: Sprague-Dawley rat; for MRT inf: read-out: MRT(0-∞)
Text: (§1) The in-vivo PK profile (mouse PK/ICR mice and rat PK/Sprague-Dawley rat) of N-(2,6-dichloro-3,5-dimethoxyphenyl)-1-(6-((4-(4-ethylpiperazin-1-yl)phenyl)amino)pyrimidin-4-yl)-1H-benz[d]imidazol-2-amine synthesized in Example 1 is as follows.

[2] = system: bladder cancer cell line RT112; assay: inhibition of proliferation of cancer cells; type: cell-based; details: Homo sapiens, RT-112, read-out: Ability of inhibiting proliferation of RT112 (GI50)
Procedure: The ability of the compound of the present invention of inhibiting the proliferation of the bladder cancer cell line RT112 was determined as the GI50 value.

microsomal stability [3] = type: in vitro ADME, Human; details: for microsomal stability (% at time): Human
Procedure: (§2) The microsomal stability of N-(2,6-dichloro-3,5-dimethoxyphenyl)-1-(6-((4-(4-ethylpiperazin-1-yl)phenyl)amino)pyrimidin-4-yl)-1H-benz[d]imidazol-2-amine synthesized in Example 1, as a representative compound of the present invention, was evaluated.

microsomal stability [4] = type: in vitro ADME, Mouse; details: for microsomal stability (% at time) / microsomal stability (% at time), Negative control (excluding NADPH): Mouse
Procedure: as §2

YES = YES (Homo sapiens, UniProt P07947); assay: kinase inhibition activity, full kinase panel; type: biochemical; details: 1 μM of the compound; read-out: kinase activity inhibited (% inhibition)
Procedure: (§3) In order to measure the inhibition activity (% inhibition) of the compound of the present invention against protein kinases, a biochemical assay was conducted using a full kinase panel consisting of 340 kinases. As a representative compound of the present invention, N-(2,6-dichloro-3,5-dimethoxyphenyl)-1-(6-((4-(4-ethylpiperazin-1-yl)phenyl)amino)pyrimidin-4-yl)-1H-benz[d]imidazol-2-amine synthesized in Example 1 was used.
(§4) The kinases whose activity is inhibited by 50% or more when treated with 1 μM of the compound of Example 1 are listed in Table 1.

FGFR1 = FGFR1 (Homo sapiens, UniProt P11362); assay: kinase inhibition activity, full kinase panel; type: biochemical; details: 1 μM of the compound; read-out: kinase activity inhibited (% inhibition)
Procedure: as §3, §4

LIMK1 = LIMK1 (Homo sapiens, UniProt P53667); assay: kinase inhibition activity, full kinase panel; type: biochemical; details: 1 μM of the compound; read-out: kinase activity inhibited (% inhibition)
Procedure: as §3, §4

[5] = molecular target: (Homo sapiens, UniProt P09769); assay: kinase inhibition activity, full kinase panel; type: biochemical; details: 1 μM of the compound; read-out: kinase activity inhibited (% inhibition)
Procedure: as §3, §4

Hck = Hck (Homo sapiens, UniProt P08631); assay: kinase inhibition activity, full kinase panel; type: biochemical; details: 1 μM of the compound; read-out: kinase activity inhibited (% inhibition)
Procedure: as §3, §4

TRKA = TRKA (Homo sapiens, UniProt P04629); assay: kinase inhibition activity, full kinase panel; type: biochemical; details: 1 μM of the compound; read-out: kinase activity inhibited (% inhibition)
Procedure: as §3, §4

FGFR4 = FGFR4 (Homo sapiens, UniProt P22455); assay: kinase inhibition activity, full kinase panel; type: biochemical; details: 1 μM of the compound; read-out: kinase activity inhibited (% inhibition)
Procedure: as §3, §4

c-Src = c-Src (Homo sapiens, UniProt P12931); assay: kinase inhibition activity, full kinase panel; type: biochemical; details: 1 μM of the compound; read-out: kinase activity inhibited (% inhibition)
Procedure: as §3, §4

MAP4K5 = MAP4K5 (Homo sapiens, UniProt Q9Y4K4); assay: kinase inhibition activity, full kinase panel; type: biochemical; details: 1 μM of the compound; read-out: kinase activity inhibited (% inhibition)
Procedure: as §3, §4

DYRK2 = DYRK2 (Homo sapiens, UniProt Q92630); assay: kinase inhibition activity, full kinase panel; type: biochemical; details: 1 μM of the compound; read-out: kinase activity inhibited (% inhibition)
Procedure: as §3, §4

TIE2 = TIE2 (Homo sapiens, UniProt Q02763); assay: kinase inhibition activity, full kinase panel; type: biochemical; details: 1 μM of the compound; read-out: kinase activity inhibited (% inhibition)
Procedure: as §3, §4

DDR2 = DDR2 (Homo sapiens, UniProt Q16832); assay: kinase inhibition activity, full kinase panel; type: biochemical; details: 1 μM of the compound; read-out: kinase activity inhibited (% inhibition)
Procedure: as §3, §4

MEKK2 = MEKK2 (Homo sapiens, UniProt Q9Y2U5); assay: kinase inhibition activity, full kinase panel; type: biochemical; details: 1 μM of the compound; read-out: kinase activity inhibited (% inhibition)
Procedure: as §3, §4

FGFR2 = FGFR2 (Homo sapiens, UniProt P21802); assay: kinase inhibition activity, full kinase panel; type: biochemical; details: 1 μM of the compound; read-out: kinase activity inhibited (% inhibition)
Procedure: as §3, §4

Fyn = Fyn (Homo sapiens, UniProt P06241); assay: kinase inhibition activity, full kinase panel; type: biochemical; details: 1 μM of the compound; read-out: kinase activity inhibited (% inhibition)
Procedure: as §3, §4

SIK2 = SIK2 (Homo sapiens, UniProt Q9H0K1); assay: kinase inhibition activity, full kinase panel; type: biochemical; details: 1 μM of the compound; read-out: kinase activity inhibited (% inhibition)
Procedure: as §3, §4

HER2 = HER2 (Homo sapiens, UniProt P04626); assay: kinase inhibition activity, full kinase panel; type: biochemical; details: 1 μM of the compound; read-out: kinase activity inhibited (% inhibition)
Procedure: as §3, §4

LCK = LCK (Homo sapiens, UniProt P06239); assay: kinase inhibition activity, full kinase panel; type: biochemical; details: 1 μM of the compound; read-out: kinase activity inhibited (% inhibition)
Procedure: as §3, §4

LYN B = LYN B (Homo sapiens, UniProt P07948); assay: kinase inhibition activity, full kinase panel; type: biochemical; details: 1 μM of the compound; read-out: kinase activity inhibited (% inhibition)
Procedure: as §3, §4

microsomal stability [6] = type: in vitro ADME, Dog; details: for microsomal stability (% at time): Dog
Procedure: as §2

[7] = in-vivo PK profile, mouse PK; details: ICR mice
Text: as §1

(Homo sapiens, UniProt P09769), sequence (P09769 2-529 limits assumed): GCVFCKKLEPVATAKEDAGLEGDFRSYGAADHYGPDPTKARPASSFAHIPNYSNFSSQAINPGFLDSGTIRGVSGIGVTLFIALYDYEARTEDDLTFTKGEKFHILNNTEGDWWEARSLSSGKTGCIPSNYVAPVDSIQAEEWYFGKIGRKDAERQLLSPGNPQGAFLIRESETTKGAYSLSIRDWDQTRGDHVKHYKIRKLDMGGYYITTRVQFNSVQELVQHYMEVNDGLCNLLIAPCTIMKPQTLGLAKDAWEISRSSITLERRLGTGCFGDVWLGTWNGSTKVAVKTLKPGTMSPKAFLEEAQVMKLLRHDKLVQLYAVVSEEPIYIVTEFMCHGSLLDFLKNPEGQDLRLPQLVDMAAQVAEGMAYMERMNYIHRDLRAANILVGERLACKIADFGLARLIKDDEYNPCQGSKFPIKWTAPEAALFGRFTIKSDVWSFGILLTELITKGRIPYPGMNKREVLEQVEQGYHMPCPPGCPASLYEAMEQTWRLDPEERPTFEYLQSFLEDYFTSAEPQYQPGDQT
FGFR1, sequence (P11362 22-822): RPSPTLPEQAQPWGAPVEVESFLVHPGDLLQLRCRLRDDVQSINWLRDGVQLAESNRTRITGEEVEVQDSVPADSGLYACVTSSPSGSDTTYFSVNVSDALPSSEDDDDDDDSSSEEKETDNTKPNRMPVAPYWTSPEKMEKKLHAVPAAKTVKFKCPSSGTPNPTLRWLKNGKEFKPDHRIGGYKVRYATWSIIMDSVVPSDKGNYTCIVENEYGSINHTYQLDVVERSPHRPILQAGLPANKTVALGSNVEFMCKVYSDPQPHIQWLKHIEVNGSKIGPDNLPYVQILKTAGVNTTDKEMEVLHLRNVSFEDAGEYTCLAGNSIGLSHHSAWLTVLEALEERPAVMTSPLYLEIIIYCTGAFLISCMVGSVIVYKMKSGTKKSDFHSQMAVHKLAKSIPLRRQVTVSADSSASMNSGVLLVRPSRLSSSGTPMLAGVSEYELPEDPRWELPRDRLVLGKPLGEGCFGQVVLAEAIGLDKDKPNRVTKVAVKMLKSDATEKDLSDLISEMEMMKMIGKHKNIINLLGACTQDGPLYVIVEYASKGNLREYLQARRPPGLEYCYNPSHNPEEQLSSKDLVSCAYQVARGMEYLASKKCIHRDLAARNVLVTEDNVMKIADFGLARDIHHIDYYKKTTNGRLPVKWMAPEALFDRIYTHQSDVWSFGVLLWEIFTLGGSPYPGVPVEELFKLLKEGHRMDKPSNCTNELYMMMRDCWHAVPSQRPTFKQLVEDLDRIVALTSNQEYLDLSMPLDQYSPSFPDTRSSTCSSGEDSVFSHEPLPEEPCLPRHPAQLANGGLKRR
Hck, sequence (P08631 whole entry): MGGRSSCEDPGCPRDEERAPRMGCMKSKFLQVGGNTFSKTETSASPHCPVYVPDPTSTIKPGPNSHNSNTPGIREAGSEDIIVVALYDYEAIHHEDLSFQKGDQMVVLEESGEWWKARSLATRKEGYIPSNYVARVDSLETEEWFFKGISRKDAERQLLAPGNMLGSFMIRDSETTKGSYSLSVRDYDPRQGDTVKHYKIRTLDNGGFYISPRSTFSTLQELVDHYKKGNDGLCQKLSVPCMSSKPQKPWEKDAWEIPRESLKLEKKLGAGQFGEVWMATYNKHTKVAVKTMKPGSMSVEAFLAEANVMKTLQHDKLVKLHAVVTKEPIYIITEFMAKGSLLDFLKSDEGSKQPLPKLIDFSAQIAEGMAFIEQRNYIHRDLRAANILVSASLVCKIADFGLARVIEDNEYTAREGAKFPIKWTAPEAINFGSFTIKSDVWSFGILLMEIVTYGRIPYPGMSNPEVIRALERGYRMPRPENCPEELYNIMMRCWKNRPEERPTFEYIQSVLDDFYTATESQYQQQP
SIK2, sequence (Q9H0K1 whole entry): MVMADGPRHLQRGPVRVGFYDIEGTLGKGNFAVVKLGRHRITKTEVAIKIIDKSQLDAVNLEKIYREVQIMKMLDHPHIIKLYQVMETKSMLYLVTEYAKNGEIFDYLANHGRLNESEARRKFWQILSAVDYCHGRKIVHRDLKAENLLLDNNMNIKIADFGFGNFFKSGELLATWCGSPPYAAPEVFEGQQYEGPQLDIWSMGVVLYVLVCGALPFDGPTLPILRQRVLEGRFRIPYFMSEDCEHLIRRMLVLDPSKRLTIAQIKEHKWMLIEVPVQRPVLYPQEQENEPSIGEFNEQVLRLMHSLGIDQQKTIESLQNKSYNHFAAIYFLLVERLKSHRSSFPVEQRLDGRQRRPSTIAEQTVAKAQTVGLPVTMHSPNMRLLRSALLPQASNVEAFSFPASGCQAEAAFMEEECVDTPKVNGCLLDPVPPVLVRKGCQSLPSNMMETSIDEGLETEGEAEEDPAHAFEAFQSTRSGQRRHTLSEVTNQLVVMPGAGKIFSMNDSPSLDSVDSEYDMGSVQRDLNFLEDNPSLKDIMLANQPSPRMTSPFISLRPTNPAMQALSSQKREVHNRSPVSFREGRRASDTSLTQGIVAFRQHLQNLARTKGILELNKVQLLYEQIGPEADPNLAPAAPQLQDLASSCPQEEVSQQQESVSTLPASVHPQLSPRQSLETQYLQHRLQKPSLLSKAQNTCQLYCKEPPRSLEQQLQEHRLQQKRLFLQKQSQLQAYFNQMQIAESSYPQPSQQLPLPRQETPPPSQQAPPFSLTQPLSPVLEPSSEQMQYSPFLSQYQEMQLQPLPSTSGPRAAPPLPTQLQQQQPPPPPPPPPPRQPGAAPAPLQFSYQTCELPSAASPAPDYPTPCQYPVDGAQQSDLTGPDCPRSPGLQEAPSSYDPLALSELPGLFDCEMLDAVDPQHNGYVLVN
LIMK1, sequence (P53667 whole entry): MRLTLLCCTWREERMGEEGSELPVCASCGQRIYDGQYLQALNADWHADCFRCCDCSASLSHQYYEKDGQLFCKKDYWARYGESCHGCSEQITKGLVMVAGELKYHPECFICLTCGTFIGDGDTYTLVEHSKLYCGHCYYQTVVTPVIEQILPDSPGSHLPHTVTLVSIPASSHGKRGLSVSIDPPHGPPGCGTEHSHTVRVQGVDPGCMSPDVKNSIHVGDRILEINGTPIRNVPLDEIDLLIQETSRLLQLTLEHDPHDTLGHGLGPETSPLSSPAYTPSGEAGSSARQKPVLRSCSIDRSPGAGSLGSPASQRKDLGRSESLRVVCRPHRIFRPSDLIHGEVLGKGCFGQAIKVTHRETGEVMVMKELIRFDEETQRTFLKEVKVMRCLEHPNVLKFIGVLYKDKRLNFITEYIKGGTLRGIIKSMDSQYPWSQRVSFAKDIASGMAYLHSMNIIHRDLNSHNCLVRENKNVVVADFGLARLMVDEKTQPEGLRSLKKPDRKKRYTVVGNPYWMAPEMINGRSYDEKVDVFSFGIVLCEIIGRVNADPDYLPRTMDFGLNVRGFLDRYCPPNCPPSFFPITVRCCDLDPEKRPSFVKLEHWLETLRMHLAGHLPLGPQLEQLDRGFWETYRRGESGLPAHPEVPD
DYRK2, sequence (Q92630 whole entry): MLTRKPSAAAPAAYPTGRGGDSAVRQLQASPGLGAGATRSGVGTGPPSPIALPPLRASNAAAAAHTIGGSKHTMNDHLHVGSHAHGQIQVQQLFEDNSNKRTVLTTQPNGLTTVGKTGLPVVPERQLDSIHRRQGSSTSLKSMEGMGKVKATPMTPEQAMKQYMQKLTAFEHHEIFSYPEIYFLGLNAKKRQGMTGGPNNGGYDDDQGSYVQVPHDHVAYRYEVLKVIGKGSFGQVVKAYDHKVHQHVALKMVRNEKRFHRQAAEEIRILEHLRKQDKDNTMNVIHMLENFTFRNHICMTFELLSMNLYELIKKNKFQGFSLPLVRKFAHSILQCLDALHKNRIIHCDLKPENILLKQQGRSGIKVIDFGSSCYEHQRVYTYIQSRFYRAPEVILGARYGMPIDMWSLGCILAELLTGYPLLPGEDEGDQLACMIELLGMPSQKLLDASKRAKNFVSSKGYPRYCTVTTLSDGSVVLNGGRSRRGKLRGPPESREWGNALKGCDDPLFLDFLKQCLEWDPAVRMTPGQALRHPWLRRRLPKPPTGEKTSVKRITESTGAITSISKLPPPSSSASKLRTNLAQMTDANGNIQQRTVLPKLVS
DDR2, sequence (Q16832 22-855): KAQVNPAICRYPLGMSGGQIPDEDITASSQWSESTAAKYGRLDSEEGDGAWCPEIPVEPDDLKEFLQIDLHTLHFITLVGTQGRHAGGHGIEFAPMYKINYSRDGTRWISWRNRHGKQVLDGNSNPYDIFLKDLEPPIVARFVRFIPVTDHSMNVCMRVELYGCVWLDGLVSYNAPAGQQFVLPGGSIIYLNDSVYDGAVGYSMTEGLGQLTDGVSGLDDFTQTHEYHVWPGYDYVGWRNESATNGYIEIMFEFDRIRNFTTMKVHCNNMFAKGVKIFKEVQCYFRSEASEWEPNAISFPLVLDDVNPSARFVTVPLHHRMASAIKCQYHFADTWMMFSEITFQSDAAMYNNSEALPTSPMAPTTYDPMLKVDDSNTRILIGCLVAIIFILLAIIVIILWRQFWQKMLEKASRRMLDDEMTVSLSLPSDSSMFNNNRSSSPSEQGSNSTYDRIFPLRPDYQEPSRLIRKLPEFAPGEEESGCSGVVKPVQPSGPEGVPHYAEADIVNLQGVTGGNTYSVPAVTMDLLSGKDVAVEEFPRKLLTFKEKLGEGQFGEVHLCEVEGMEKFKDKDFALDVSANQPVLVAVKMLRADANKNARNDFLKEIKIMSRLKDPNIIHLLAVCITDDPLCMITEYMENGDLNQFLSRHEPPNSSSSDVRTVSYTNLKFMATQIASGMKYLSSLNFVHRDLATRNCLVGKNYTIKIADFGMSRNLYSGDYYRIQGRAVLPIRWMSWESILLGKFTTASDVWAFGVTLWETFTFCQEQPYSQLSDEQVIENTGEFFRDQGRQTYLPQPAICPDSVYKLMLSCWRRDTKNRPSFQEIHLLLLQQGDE

For `CCN1CCN(c2ccc(Nc3cc(-n4c(Nc5c(Cl)c(OC)cc(OC)c5Cl)nc5ccccc54)ncn3)cc2)CC1` [Example 1, N-(2,6-dichloro-3,5-dimethoxyphenyl)-1-(6-((4-(4-ethylpiperazin-1-yl)phenyl)amino)pyrimidin-4-yl)-1H-benz[d]imidazol-2-amine], the “F*” value ([1]; PO 5 mg/kg) was 13.46%, the AUC(0-inf) ([1]; in vivo, IV 5 mg/kg) was 884 ng·h/mL and the AUC(0-t) ([1]; in vivo, IV 5 mg/kg) was 844 ng·h/mL. It also gave a Cmax ([1]; in vivo, IV 5 mg/kg) of 271 ng/mL, a Tmax ([1]; in vivo, IV 5 mg/kg) of 0.083 h and a clearance ([1]; in vivo, IV 5 mg/kg) of 97.3 mL/min/kg. It also gave a half-life ([1]; in vivo, IV 5 mg/kg) of 5.75 h, an MRT inf ([1]; in vivo, IV 5 mg/kg) of 6.37 h and a Vd ([1]; in vivo, IV 5 mg/kg, read-out: Vz) of 48 L/kg. The AUC(0-inf) ([1]; in vivo, PO 5 mg/kg) was 652 ng·h/mL, the AUC(0-t) ([1]; in vivo, PO 5 mg/kg) was 129 ng·h/mL and the Cmax ([1]; in vivo, PO 5 mg/kg) was 11.6 ng/mL. The Tmax ([1]; in vivo, PO 5 mg/kg) was 5.33 h, the half-life ([1]; in vivo, PO 5 mg/kg) was 9.14 h and the MRT inf ([1]; in vivo, PO 5 mg/kg) was 12.6 h. The GI50 [2] was < 1000 nM, the “microsomal stability (% at time)” value (microsomal stability [3]; 0 min) was 100.00% and the “microsomal stability (% at time)” value (microsomal stability [3]; 5 min) was 80.36%. The “microsomal stability (% at time)” value (microsomal stability [3]; 10 min) was 76.63%, the “microsomal stability (% at time)” value (microsomal stability [3]; 15 min) was 64.04% and the “microsomal stability (% at time)” value (microsomal stability [3]; 30 min) was 51.45%. The “microsomal stability (% at time)” value (microsomal stability [3]; 45 min) was 37.62%, the “microsomal stability (% at time)” value (microsomal stability [3]; 60 min) was 36.17% and the half-life (microsomal stability [3]; microsomes, Human microsomal stability) was 0.566 h. The “microsomal stability (% at time)” value (microsomal stability [4]; 0 min) was 100.00%, the “microsomal stability (% at time), Negative control (excluding NADPH)” value (microsomal stability [4]; 0 min) was 100.00% and the “microsomal stability (% at time)” value (microsomal stability [4]; 5 min) was 62.73%. For the same compound, the “microsomal stability (% at time), Negative control (excluding NADPH)” value (microsomal stability [4]; 5 min) was 103.56%, the “microsomal stability (% at time)” value (microsomal stability [4]; 10 min) was 40.77% and the “microsomal stability (% at time), Negative control (excluding NADPH)” value (microsomal stability [4]; 10 min) was 103.56%. The “microsomal stability (% at time)” value (microsomal stability [4]; 15 min) was 29.27%, the “microsomal stability (% at time), Negative control (excluding NADPH)” value (microsomal stability [4]; 15 min) was 102.67% and the “microsomal stability (% at time)” value (microsomal stability [4]; 30 min) was 11.88%. The “microsomal stability (% at time), Negative control (excluding NADPH)” value (microsomal stability [4]; 30 min) was 106.67%, the “microsomal stability (% at time)” value (microsomal stability [4]; 45 min) was 3.87% and the “microsomal stability (% at time), Negative control (excluding NADPH)” value (microsomal stability [4]; 45 min) was 106.67%. The “microsomal stability (% at time)” value (microsomal stability [4]; 60 min) was 3.64%, the “microsomal stability (% at time), Negative control (excluding NADPH)” value (microsomal stability [4]; 60 min) was 104.44% and the half-life (microsomal stability [4]; microsomes, Mouse microsomal stability) was 9.93 min. For the same compound, the inhibition at 1 µM (YES) was ≥ 50%, the inhibition at 1 µM (FGFR1) was ≥ 50% and the inhibition at 1 µM (LIMK1) was ≥ 50%. For the same compound, the inhibition at 1 µM [5] was ≥ 50%, the inhibition at 1 µM (Hck) was ≥ 50% and the inhibition at 1 µM (TRKA) was ≥ 50%. For the same compound, the inhibition at 1 µM (FGFR4) was ≥ 50%, the inhibition at 1 µM (c-Src) was ≥ 50% and the inhibition at 1 µM (MAP4K5) was ≥ 50%. The inhibition at 1 µM (DYRK2) was ≥ 50%, the inhibition at 1 µM (TIE2) was ≥ 50% and the inhibition at 1 µM (DDR2) was ≥ 50%. The inhibition at 1 µM (MEKK2) was ≥ 50%, the inhibition at 1 µM (FGFR2) was ≥ 50% and the inhibition at 1 µM (Fyn) was ≥ 50%. For the same compound, the inhibition at 1 µM (SIK2) was ≥ 50%, the inhibition at 1 µM (HER2) was ≥ 50% and the inhibition at 1 µM (LCK) was ≥ 50%. For the same compound, the inhibition at 1 µM (LYN B) was ≥ 50%, the “microsomal stability (% at time)” value (microsomal stability [6]; 0 min) was 100.00% and the “microsomal stability (% at time)” value (microsomal stability [6]; 5 min) was 77.02%. The “microsomal stability (% at time)” value (microsomal stability [6]; 10 min) was 57.41%, the “microsomal stability (% at time)” value (microsomal stability [6]; 15 min) was 44.70% and the “microsomal stability (% at time)” value (microsomal stability [6]; 30 min) was 21.03%. For the same compound, the “microsomal stability (% at time)” value (microsomal stability [6]; 45 min) was 8.23%, the “microsomal stability (% at time)” value (microsomal stability [6]; 60 min) was 5.02% and the half-life (microsomal stability [6]; microsomes, Dog microsomal stability) was 0.225 h. For the same compound, the “F*” value ([7]; PO 10 mg/kg) was 23.44%, the AUC(0-inf) ([7]; mouse, in vivo, IV 5 mg/kg) was 350 ng·h/mL and the AUC(0-t) ([7]; mouse, in vivo, IV 5 mg/kg) was 322 ng·h/mL. For the same compound, the Cmax ([7]; mouse, in vivo, IV 5 mg/kg) was 111 ng/mL, the Tmax ([7]; mouse, in vivo, IV 5 mg/kg) was 0.083 h and the clearance ([7]; mouse, in vivo, IV 5 mg/kg) was 238 mL/min/kg. For the same compound, the half-life ([7]; mouse, in vivo, IV 5 mg/kg) was 1.83 h, the MRT inf ([7]; mouse, in vivo, IV 5 mg/kg, read-out: MRT(0-∞)) was 3.56 h and the Vd ([7]; mouse, in vivo, IV 5 mg/kg, read-out: Vz) was 37.7 L/kg. The AUC(0-t) ([7]; mouse, in vivo, PO 10 mg/kg) was 151 ng·h/mL, the Cmax ([7]; mouse, in vivo, PO 10 mg/kg) was 27.1 ng/mL and the Tmax ([7]; mouse, in vivo, PO 10 mg/kg) was 6 h.
